The record followed here is patent US20120305840A1, “CARBON DIOXIDE ABSORBING SOLUTION” (Kabushiki Kaisha Toshiba, priority 2009, published 2012).

Data set [1] in a line: Volatility: decreased amount of absorbent by 1H-NMR after heating. It counts as physicochemical. To be noted: 60 minutes at 140° C. The method, then: According to the decreased amount, the volatility was evaluated. The less the decreased amount was, the less volatile the absorbent was regarded as. In general, if containing a less volatile absorbent, the absorbing solution can be repeatedly regenerated without decrease of the absorbent content.

Data set [2] is described as follows: Precipitation in the absorbing solution after absorbing carbon dioxide. The data set is classed as physicochemical.

For `O=C([O-])C1CCCN1.[K+]` (stereo not shown) [absorbent 2, pyrrolidine-2-carboxylic acid salt], the “volatility of the absorbent (in words)” value in data set [1] is recorded as “hardly volatilize”. The “precipitation in the absorbing solutions on absorbing carbon dioxide to form products” value in data set [2] was “did not precipitate”.
As for `O=C([O-])C1CNC1.[K+]` [absorbent 1, potassium 1-aza-azetidine-3-carboxylate], the “volatility of the absorbent (in words)” value in data set [1] was “hardly volatilize”. In data set [2], the “precipitation in the absorbing solutions on absorbing carbon dioxide to form products” value is “did not precipitate”.
